Test results: BindingDB's records for doi:10.1016/j.bmcl.2005.01.080 (University of Minnesota, 2005)

Molecular target: Eukaryotic translation initiation factor 4E (Homo sapiens, UniProt P06730)
Test: Inhibitory concentration against 7-methyl-GTP binding to eukaryotic translation initiation factor 4E

Eukaryotic translation initiation factor 4E, sequence (P06730 whole entry): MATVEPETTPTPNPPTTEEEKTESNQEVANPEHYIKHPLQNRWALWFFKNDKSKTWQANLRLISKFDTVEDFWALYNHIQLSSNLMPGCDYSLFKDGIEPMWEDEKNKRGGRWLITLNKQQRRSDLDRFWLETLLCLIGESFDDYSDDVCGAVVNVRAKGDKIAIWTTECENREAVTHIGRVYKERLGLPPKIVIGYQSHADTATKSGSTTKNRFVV

Row | SMILES | IC50 [µM]
1 | CN1CN(C2O[C@H](CO)[C@@H](O)[C@H]2O)C2=NC=NC(O)C21 (some centres not stated) | > 400
2 | CN1CN(C2O[C@H](CO)[C@@H](O)[C@H]2O)c2nc(N)[nH]c(=S)c21 (some centres not stated) | > 400
